In PubChem BioAssay AID2423 (Broad Institute, 2010):
Inconclusive results are not listed. The source made the active and inactive calls. How the calls were made is not given here.

System: C. albicans CaCi-8 + fluconazole, Alamar Blue growth, 48 h
Assay: resistant C. albicans growth inhibition with fluconazole, dose response, CaCi-8 strain, Alamar Blue fluorescence (AID 2423)

SMILES | EC50
S=C(Nc1ccccc1)Nc1nc2ccccc2n1CCOc1ccc(Cl)cc1 | 0.962 µM
Cc1cccc(Cc2cnc(N3C(=N)SC(C)C3=O)s2)c1 (stereo not given) | > 16 µM (inactive)
COc1ccc2[nH]c3c(C)c4ccncc4c(C)c3c2c1 | 1.44 µM
O=C(CN1C(=O)COc2ccccc21)NCCCN1CCc2ccccc2C1 | > 15 µM (inactive)
COc1cc(C(Nc2ccccn2)c2ccc3ccc(C)nc3c2O)cc(OC)c1O (stereo not given) | 2.02 µM
CCCCCCn1c(=O)c(-c2ccccc2)c(O)c2ccccc21 | 9.42 µM
CC(C)CC(=O)NC(c1cccs1)c1ccc2cccnc2c1O (stereo not given) | 0.867 µM
COc1cccc(CN2C(=O)C3(C(C#N)=C(N)OC4=C3C(=O)CCC4)c3ccccc32)c1 (stereo not given) | 2.15 µM
COc1ccc(CNCCNC(=O)c2ccco2)c(OC)c1OC | > 16 µM (inactive)
COc1ccccc1NS(=O)(=O)c1cc(NC(=O)CCC(=O)c2cccs2)ccc1Cl | > 15 µM (inactive)
COC(=O)c1c(-c2cccs2)csc1NC(=O)c1cccnc1 | 1.29 µM
CCn1cc(/C=C/c2cc[n+](C)cc2)c2ccccc21 | 9.3 µM
O=C(CC1CC2CCC1C2)Nc1nc(-c2ccccn2)cs1 (stereo not given) | 0.641 µM
CCOc1ccc(C(=O)Nc2ccc(Cc3ccncc3)cc2)cc1Br | 3.64 µM
COc1cccc(/C=N/NC(=O)c2c(C)nc3ccc(Cl)cn23)c1O | 1.71 µM
O=[N+]([O-])c1cc(Cl)c2cccnc2c1O | 0.291 µM
CC(=O)c1cc(C#N)c(N2CCCC2)nc1C | > 16 µM (inactive)
CCCc1ccc(OCC(=O)Nc2cc(S(=O)(=O)CC)ccc2O)cc1 | 0.439 µM
C/C(=N/NC(=O)c1ccccc1O)c1ccc(N2C(=O)C3CCCCC3C2=O)cc1 (stereo not given) | > 16 µM (inactive)
O=C(NCC1CCCO1)c1cc2n(n1)C(C(F)(F)F)CC(c1ccc(Br)cc1)N2 (stereo not given) | 7.57 µM
Cn1c(=O)c(C(=O)NCCc2ccccc2)c(O)c2ccccc21 | 13 µM
CCOC(=O)c1c(NC(=S)NCC2CCCO2)sc(C)c1C (stereo not given) | < 0.12 µM
CN(/C(=N/S(=O)(=O)c1cccs1)c1ccccc1)c1ccc(O)cc1 | > 15 µM (inactive)
CC(C)(C)NC(=S)N/N=C/c1cc(Br)c(O)c(Br)c1 | > 15 µM (inactive)
Cc1ccc(-n2[nH]c(C)c(/C=N/NC(=O)c3ccc([N+](=O)[O-])cc3)c2=O)c(C)c1 | 3.53 µM
Cc1ccc2c(c1)c(/C=C/c1cc[n+](C)cc1)c(C)n2C | > 16 µM (inactive)
CCN(Cc1ccccc1)S(=O)(=O)c1ccc(C(=O)Nc2nnc(-c3ccccc3OC)o2)cc1 | < 0.12 µM
NCC(c1ccc(Cl)cc1Cl)c1c[nH]c2ccccc12 (stereo not given) | > 16 µM (inactive)

SMILES | EC50
CC(=O)NC(c1cccs1)c1cc([N+](=O)[O-])c2cccnc2c1O (stereo not given) | 1.08 µM
O=C(N/N=C/c1cc([N+](=O)[O-])ccc1O)C(O)(c1ccccc1)c1ccccc1 | 5.79 µM
Cc1cc(C)n(-c2nc(SCCN(C)C)c3c4c(sc3n2)CCCC4)n1 | 6.43 µM
O=C(Nc1ccc(F)c(Cl)c1)NC1CC1 | 1.49 µM
COc1cccc(C2C(C(=O)c3cc4ccccc4o3)=C(O)C(=O)N2c2cc(C)on2)c1OC (stereo not given) | 0.154 µM
COc1ccc(CCC(=O)N2CC(C)OC(C)C2)cc1 (stereo not given) | > 15 µM (inactive)
O=C1CCCN1CCCN=c1c([N+](=O)[O-])nn(-c2ccc(Cl)cc2)n1O | 6.12 µM
CC1CCc2c(sc3ncnc(N4CCOCC4)c23)C1 (stereo not given) | > 16 µM (inactive)
c1ccc(CC2CCN(C3=Nc4cccc5cccc3c45)CC2)cc1 | 4.4 µM
O=C(CSc1nnc(-c2ccc(Br)cc2)o1)Nc1cccc2ccccc12 | 15.6 µM
CCCC(=O)NC(c1ccccc1Cl)c1ccc2cccnc2c1O (stereo not given) | 0.516 µM
Clc1ccc2c(c1)C(c1cccs1)=NNC(c1cccnc1)=N2 | < 0.12 µM
CCC(=O)NC(c1ccc(Cl)cc1Cl)c1ccc2cccnc2c1O (stereo not given) | 0.714 µM
CCN(CC)c1ccc2nc3ccccc3[n+](CC)c2c1 | 0.842 µM
Cc1nc(NC(=O)c2c(-c3ccccc3)noc2C)sc1C(=O)N(C)C | 16.3 µM
CCCCCn1c(=O)c(C(=O)NCc2ccncc2)c(O)c2ccccc21 | 1.72 µM
O=c1c2cc(Br)ccc2nc(-c2ccc([N+](=O)[O-])cc2)n1O | 1.14 µM
CC(NC(=O)Nc1ccccc1F)C(C)(C)C (stereo not given) | > 16 µM (inactive)
O=C(CCS(=O)(=O)c1ccccc1)Nc1nnc(C(F)(F)F)s1 | > 16 µM (inactive)
CC(=O)Nc1ccc(NC(=O)CCCN2C(=O)c3ccccc3C2=O)cc1 | > 15 µM (inactive)
CCCS(=O)(=O)c1nnnn1-c1cccc(OC)c1 | > 15 µM (inactive)
C[C@]12CCC3[C@@H](CC[C@H]4C[C@@H](O)CC[C@]34C)C1CCC2=O (stereo not given in full) | 1.48 µM
O=c1c(Cl)c(NCCCO)cnn1-c1nc2ccccc2[nH]1 | > 15 µM (inactive)
CC(=S)/C=C1\Sc2ccccc2N1C | 5.57 µM
O=C(N/N=C/c1cc([N+](=O)[O-])ccc1O)C1C2CCCCC21 (stereo not given) | 2.16 µM
O=S(=O)(Nc1cccc2cccnc12)c1ccc(S(=O)(=O)N2CCCC2)cc1 | 5.62 µM
Cc1ccc(S(=O)(=O)C(C#N)c2nc3ccccc3nc2N2CCN(C)CC2)cc1C (stereo not given) | 16 µM
